Source: patent publication US20240018611A1, “IMMUNE MOLECULE VIRUS PARTICLE DETECTION KIT” (priority 2021, published 2024)

Key:
HBV [1] = test: HBV DNA in supernatant of ETV-treated HepG2.2.15 cells (immune capture of virus particles + qPCR); assay type: cell-based, hepatitis B virus (HBV)
Experimental: (§1) The inventor selects the supernatant of HBV-secreting cells ([…] and HepAD38) for testing and verification. HepG2.2.15 and HepAD38 are the two cell lines that are commonly used in the laboratory to stably express HBV, and entecavir (ETV) is the first-line drug in clinical treatment of hepatitis B at present. The inventor uses different concentration gradients of ETV (0.1 μM, 1 μM, 10 μM, PBS as control group). Then, the virus particles are captured by virus particle-antibody (the envelope PreS1 monoclonal antibody and the core particle HBc monoclonal antibody)-biotin-streptavidin-magnetic beads, and the genomic DNA of HBV in the corresponding virus particles is detected.
(§2) In order to study the dynamic changes of HBV DNA with different components, two cell lines, HepG2.2.15 and HepAD38, which stably express HBV, are pretreated with different concentration gradients of ETV (0.1 μM, 1 μM, 10 μM and a PBS control group), and the supernatant is discarded after 24 hours, and replaced with fresh Dulbecco's modified eagle medium (DMEM) and ETV with different concentration gradients. After 72 hours, the supernatant is transferred to an EP tube, and the virus particles in the supernatant are captured by PreS1 antibody-magnetic beads and HBc antibody-magnetic beads respectively, and the captured products are detected by qPCR.
The above research results mean that the capture method can separate and capture virus particles in cell supernatant. […] The same conclusion is obtained in HepAD38 cell experiment (FIGS. 10A-10B).

HBV [2] = test: HBV DNA in supernatant of ETV-treated HepAD38 cells (immune capture of virus particles + qPCR); assay type: cell-based, hepatitis B virus (HBV)
Experimental: as §1, §2

[3] = ETV 0.1 μM, 1 μM, 10 μM, PBS control, antibody-biotin-streptavidin-magnetic bead capture, FIGS. 2A-2B

**Q.** For `C=C1[C@H](CO)[C@@H](O)C[C@@H]1n1cnc2c(=O)[nH]c(N)nc21` [ETV, entecavir], which “viral genomic DNA (total, complete virus particles, core particles) in cell supernatant versus ETV concentration” value (HBV [1]; [3]) is on record?
**A.** Its value is “The higher the concentration of ETV, the lower the viral genomic DNA detected by the three methods”.

**Q.** What about the “copies of HBV DNA in the supernatant” value (HBV [1]; ETV 0.1 μM, 1 μM, 10 μM, supernatant after 72 hours, PreS1/HBc antibody-magnetic bead capture, FIGS. 9A-9B) of the same compound?
**A.** The value was “decreased in a dose-dependent manner”.

**Q.** And the “total HBV genomic DNA, complete virus particle genomic DNA and virus core particle DNA over time” value (HBV [1]; ETV 1 uM, FIGS. 2C-2D)?
**A.** Its value is “all decreased rapidly in two days”.

**Q.** And the “viral genomic DNA (total, complete virus particles, core particles) in cell supernatant versus ETV concentration” value (HBV [2]; [3])?
**A.** Its value is “The higher the concentration of ETV, the lower the viral genomic DNA detected by the three methods”.

**Q.** And the “total HBV genomic DNA, complete virus particle genomic DNA and virus core particle DNA over time” value (HBV [2]; ETV 1 uM, FIGS. 2C-2D)?
**A.** The value was “all decreased rapidly in two days”.
